The test has as its target T1, Axl (Homo sapiens, UniProt P30530).
T1 construct: endogenous in cells; host or cells: HeLa cells
T1 sequence (P30530 26-894): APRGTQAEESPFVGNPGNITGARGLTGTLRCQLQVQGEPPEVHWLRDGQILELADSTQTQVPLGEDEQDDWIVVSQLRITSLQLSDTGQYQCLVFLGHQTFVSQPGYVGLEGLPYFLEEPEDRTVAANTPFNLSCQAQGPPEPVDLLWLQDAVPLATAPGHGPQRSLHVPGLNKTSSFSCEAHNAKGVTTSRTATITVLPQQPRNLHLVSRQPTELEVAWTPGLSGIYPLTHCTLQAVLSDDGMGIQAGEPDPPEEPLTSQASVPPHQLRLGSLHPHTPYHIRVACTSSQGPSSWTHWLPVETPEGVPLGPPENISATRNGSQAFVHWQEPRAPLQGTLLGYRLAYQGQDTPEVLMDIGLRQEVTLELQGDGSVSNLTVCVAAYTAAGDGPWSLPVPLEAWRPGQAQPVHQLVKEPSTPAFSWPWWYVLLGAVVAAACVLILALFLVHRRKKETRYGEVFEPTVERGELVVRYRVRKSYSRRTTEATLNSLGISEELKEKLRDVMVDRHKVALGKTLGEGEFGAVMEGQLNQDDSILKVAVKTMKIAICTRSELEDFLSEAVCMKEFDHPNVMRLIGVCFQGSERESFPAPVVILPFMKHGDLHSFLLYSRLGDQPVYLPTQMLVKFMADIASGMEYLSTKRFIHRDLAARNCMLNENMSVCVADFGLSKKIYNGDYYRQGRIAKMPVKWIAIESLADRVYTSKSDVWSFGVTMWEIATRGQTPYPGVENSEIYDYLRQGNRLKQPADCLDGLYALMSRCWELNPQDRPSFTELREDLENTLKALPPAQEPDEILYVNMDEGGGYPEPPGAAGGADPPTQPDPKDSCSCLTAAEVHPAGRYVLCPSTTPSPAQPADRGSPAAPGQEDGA
The experiment in a line: Phospho-Akt In-Cell Western Assay (inhibition of Axl activity after Axl-antibody cross-linking). Type of test: cell-based. The following applies: read-out: IC50. In short, it runs like this: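 Phospho-Akt was detected in formaldehyde-fixed cells by in-cell immunostaining with HRP chemiluminescence. Before fixation, HeLa cells kept 24 h in low-serum medium containing 500 ng/mL Axl/Fc received compound for 1 h at 37 °C, followed by 5-min Axl activation through antibody clustering.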

The mark [1] stands for this setting: Hela cells, phospho-Akt chemiluminescence normalized to relative cell number, compounds of formula (Ia), Table 1.
Where [2] appears, read: Hela cells, phospho-Akt chemiluminescence normalized to relative cell number, compounds of formula (Ib), Table 2.
Setting [3] is: inhibition of Axl activity, Table 1, compounds of formula (Ia).

The results in this text go back to patent US7709482B2, “Polycyclic heteroaryl substituted triazoles useful as Axl inhibitors” (Rigel Pharmaceuticals, Inc., priority 2006, dated 2010).

SMILES strings stand for the structures. Like-named read-outs stand apart in the source and are kept apart here. Bounds are passed on as bounds.

In general, IC50 refers to the concentration at which inhibition is half-maximal.

As for `COc1ccc2c(c1)CCCc1cc(-n3nc(Nc4ccc(OCCN5CCCC5)c(F)c4)nc3N)nnc1-2` [Compound 56, 1-(6,7-dihydro-5H-9-methoxybenzo[6,7]cyclo-hepta[1,2-c]pyridazin-3-yl)-N^3-(3-fluoro-4-(2-(pyrrolidin-1-yl)ethoxy)phenyl)-1H-1,2,4-triazole-3,5-diamine], the concentration for half-maximal inhibition (IC50) under setting [1] fell in the range of 1000 to 10000 nM. Regarding `Nc1nc(Nc2ccc(N3CC[C@@H](CN4CCCC4)C3)c(F)c2)nn1-c1cc2c(nn1)-c1ccccc1CCC2` [Compound 115, 1-(6,7-dihydro-5H-benzo[6,7]cyclohepta[1,2-c]pyridazin-3-yl)-N^3-(3-fluoro-4-((S)-3-(pyrrolidin-1-ylmethyl)pyrrolidinyl)phenyl)-1H-1,2,4-triazole-3,5-diamine], the IC50 under setting [1] is 1000 to 10000 nM. For the molecule `Nc1nc(Nc2ccc(-c3ccc4c(c3)OCO4)nc2)nn1-c1cc2c(nn1)-c1ccccc1CCC2` [Compound 97, 1-(6,7-dihydro-5H-benzo[6,7]cyclohepta[1,2-c]pyridazin-3-yl)-N^3-(6-(benzo[d][1,3]dioxole-6-yl)pyridine-3-yl)-1H-1,2,4-triazole-3,5-diamine], the IC50 under setting [1] was > 20000 nM. As for `CN(C1CCc2ccc(Nc3nc(N)nn3-c3cc4c(nn3)-c3ccccc3CCC4)cc2CC1)C1CC2CCC1C2` (stereo not drawn) [Compound 161, 1-(6,7-dihydro-5H-benzo[6,7]cyclohepta[1,2-c]pyridazin-3-yl)-N^5-(7-((bicyclo[2.2.1]heptan-2-yl)(methyl)amino)-6,7,8,9-tetrahydro-5H-benzo[7]annulene-2-yl)-1H-1,2,4-triazole-3,5-diamine], the IC50 under setting [2] lay within 1000 to 10000 nM. Same read-out and setting: the result for `Nc1nc(Nc2ccc(CN3CCC(N4CCCC4)CC3)cc2)n(-c2cc3c(nn2)-c2ccccc2CCC3)n1` [Compound 165, 1-(6,7-dihydro-5H-benzo[6,7]cyclohepta[1,2-c]pyridazin-3-yl)-N^5-(4-((4-pyrrolidin-1-ylpiperidinyl)methyl)phenyl)-1H-1,2,4-triazole-3,5-diamine] reads < 1000 nM. `CN(C)CCN1CCOc2cc(Nc3nc(N)n(-c4cc5c(nn4)-c4ccccc4OCC5)n3)ccc21` [Compound 122, 1-(6,7-dihydro-5H-benzo[2,3]oxepino[4,5-c]pyridazin-3-yl)-N^3-(4-(2-dimethylaminoethyl)-(3,4-dihydro-2H-benzo[b][1,4]oxazin-7-yl))-1H-1,2,4-triazole-3,5-diamine]: the IC50 under setting [1] is < 1000 nM. In the case of `CN1CCC(N2CCN(c3ccc(Nc4nc(N)nn4-c4cc5c(nn4)-c4ccccc4CCC5)cc3F)CC2)CC1` [Compound 168, 1-(6,7-dihydro-5H-benzo[6,7]cyclohepta[1,2-c]pyridazin-3-yl)-N^5-(3-fluoro-4-(4-N-methylpiperid-4-ylpiperazinyl)phenyl)-1H-1,2,4-triazole-3,5-diamine], the half-inhibitory concentration (IC50) under setting [2] was 1000 to 10000 nM. In the case of `Nc1nc(Nc2ccc(N3Cc4ccccc4C3)c(F)c2)nn1-c1cc2c(nn1)-c1ccccc1SCC2` [Compound 123, 1-(6,7-dihydro-5H-benzo[2,3]thiepino[4,5-c]pyridazin-3-yl)-N^3-(3-fluoro-4-(isoindolin-2-yl)phenyl)-1H-1,2,4-triazole-3,5-diamine], under setting [1], the IC50 was > 20000 nM. Turning to `Nc1nc(Nc2ccc3c(c2)CCC(N2CCC(CN4CCCCC4)CC2)CC3)nn1-c1cc2c(nn1)-c1ccccc1CCC2` (stereo not drawn) [Compound 233, 1-(6,7-dihydro-5H-benzo[6,7]cyclohepta[1,2-c]pyridazin-3-yl)-N^3-(7-(4-(piperidin-1-ylmethyl)piperidin-1-yl)-6,7,8,9-tetrahydro-5H-benzo[7]annulene-2-yl)-1H-1,2,4-triazole-3,5-diamine], the IC50 under setting [3] is < 1000 nM. For `Nc1nc(Nc2ccc3c(c2)CCC(N2CC[C@H](O)C2)CC3)nn1-c1cc2c(nn1)-c1ccccc1CCC2` (stereo partly drawn) [Compound 221, 1-(6,7-dihydro-5H-benzo[6,7]cyclohepta[1,2-c]pyridazin-3-yl)-N^3-(7-(3-(S)-hydroxypyrrolidin-1-yl)-6,7,8,9-tetrahydro-5H-benzo[7]annulene-2-yl)-1H-1,2,4-triazole-3,5-diamine], under setting [3], the 50% inhibitory concentration (IC50) was < 1000 nM. With `CN(C)Cc1nc2cc(Nc3nc(N)n(-c4cc5c(nn4)-c4ccccc4CCC5)n3)ccc2[nH]1` [Compound 13, 1-(6,7-dihydro-5H-benzo[6,7]cyclohepta[1,2-c]pyridazin-3-yl)-N^3-(2-((dimethylamino)methyl)-1H-benzo[d]imidazol-5-yl)-1H-1,2,4-triazole-3,5-diamine], the IC50 under setting [1] was 1000 to 10000 nM. Still for that read-out and setting: as for `CN1CCc2cc(-n3nc(Nc4ccc(N5CCN(C6CCCCC6)CC5)c(F)c4)nc3N)nnc2-c2ccccc21` [Compound 43, 1-(7-methyl-6,7-dihydro-5H-benzo[2,3]azepino[4,5-c]pyridazin-3-yl)-N^3-(3-fluoro-4-(4-cyclohexylpiperazinyl)phenyl)-1H-1,2,4-triazole-3,5-diamine], the figure is 1000 to 10000 nM; as for `Nc1nc(Nc2ccc(N3CCN(C4CCCCC4)CC3)cc2)nn1-c1cc2c(nn1)-c1ccccc1CCC2` [Compound 3, N^3-(4-(4-cyclohexanylpiperazin-1-yl)phenyl)-1-(6,7-dihydro-5H-benzo[6,7]cyclohepta[1,2-c]pyridazin-3-yl)-1H-1,2,4-triazole-3,5-diamine], < 1000 nM. `CN(C)[C@@H]1CCN(c2ccc(Nc3nc(N)n(-c4cc5c(nn4)-c4ccccc4CCC5)n3)cc2F)C1` [Compound 180, 1-(6,7-dihydro-5H-benzo[6,7]cyclohepta[1,2-c]pyridazin-3-yl)-N^3-(3-fluoro-4-(3-(3R)-dimethylaminopyrrolidin-1-yl)phenyl)-1H-1,2,4-triazole-3,5-diamine]: the half-inhibitory concentration (IC50) under setting [3] was < 1000 nM. In the case of `Nc1nc(Nc2ccc3c(c2)CCC(N2CC[C@@H](O)C2)CC3)nn1-c1cc2c(nn1)-c1ccccc1CCC2` (stereo partly drawn) [Compound 219, 1-(6,7-dihydro-5H-benzo[6,7]cyclohepta[1,2-c]pyridazin-3-yl)-N^3-(7-(3-(R)-hydroxypyrrolidin-1-yl)-6,7,8,9-tetrahydro-5H-benzo[7]annulene-2-yl)-1H-1,2,4-triazole-3,5-diamine], the IC50 under setting [3] was < 1000 nM. With `Nc1nc(Nc2ccc(N3CCN(C4CC5CCC4C5)CC3)cc2)nn1-c1cc2c(nn1)-c1ccccc1CCC2` (stereo not drawn) [Compound 33, 1-(6,7-dihydro-5H-benzo[6,7]cyclohepta[1,2-c]pyridazin-3-yl)-N^3-(4-(4-(bicyclo[2.2.1]heptan-2-yl)piperazin-1-yl)phenyl)-1H-1,2,4-triazole-3,5-diamine], under setting [1], the IC50 was 1000 to 10000 nM. `Nc1nc(Nc2ccc(/C=C/CN3CCCCC3)nc2)nn1-c1cc2c(nn1)-c1ccccc1CCC2` [Compound 138, 1-(6,7-dihydro-5H-benzo[6,7]cyclohepta[1,2-c]pyridazin-3-yl)-N^3-(6-(3-piperidin-1-yl-(E)-propenyl)pyridin-3-yl)-1H-1,2,4-triazole-3,5-diamine]: the IC50 under setting [3] was < 1000 nM. As for `CN1CCC2(CCN(c3ccc(Nc4nc(N)n(-c5cc6c(nn5)-c5ccccc5CCC6)n4)cc3F)C2)C1` (stereo not drawn) [Compound 110, 1-(6,7-dihydro-5H-benzo[6,7]cyclohepta[1,2-c]pyridazin-3-yl)-N^3-(3-fluoro-4-(7-methyl-2,7-diazaspiro[4.4]nonan-2-yl)phenyl)-1H-1,2,4-triazole-3,5-diamine], under setting [1], the IC50 was < 1000 nM.

As for `Nc1nc(Nc2ccc(C=CCN3CCC(N4CCCC4)CC3)cc2)nn1-c1cc2c(nn1)-c1ccccc1CCC2` [Compound 203, 1-(6,7-dihydro-5H-benzo[6,7]cyclohepta[1,2-c]pyridazin-3-yl)-N^3-(4-(4-pyrrolidin-1-ylpiperidin-1-ylprop-1-enyl)phenyl)-1H-1,2,4-triazole-3,5-diamine], the IC50 under setting [3] is < 1000 nM.

For `Nc1nc(Nc2ccc3c(c2)CCC(N2CCC[C@H]2C(=O)O)CC3)nn1-c1cc2c(nn1)-c1ccccc1CCC2` (stereo partly drawn) [Compound 195, 1-(6,7-dihydro-5H-benzo[6,7]cyclohepta[1,2-c]pyridazin-3-yl)-N^3-((7-(2-(S)-carboxy)pyrrolidin-1-yl)-6,7,8,9-tetrahydro-5H-benzo[7]annulene-2-yl)-1H-1,2,4-triazole-3,5-diamine], the IC50 under setting [3] fell in the range of 1000 to 10000 nM.

Consider `Nc1nc(Nc2cnc3c(c2)CN(C2CCCC2)CC3)nn1-c1cc2c(nn1)-c1ccccc1CCC2` [Compound 190, 1-(6,7-dihydro-5H-benzo[6,7]cyclohepta[1,2-c]pyridazin-3-yl)-N^3-(6-cyclopentyl-5,6,7,8-tetrahydro-1,6-naphthyridine-3-yl)-1H-1,2,4-triazole-3,5-diamine], for which, under setting [3], the IC50 is < 1000 nM.
